From ChEMBL document CHEMBL4699600, “Design, Synthesis, and Biological Evaluation of Covalent Inhibitors of Focal Adhesion Kinase (FAK) against Human Malignant Glioblastoma” (J Med Chem, 2020)
pIC50, pKi: −log10 of the molar value. Active and inactive are the calls of the source. The rule behind the calls is not given here.

Experiments:
Focal adhesion kinase 1 [1] = biological target: T1, Focal adhesion kinase 1 (Homo sapiens, UniProt Q05397); experiment: Inhibition of human recombinant FAK at 100 nM by [gamma32P]-ATP radiometric analysis relative to control
Focal adhesion kinase 1 [2] = biological target: T1, Focal adhesion kinase 1; settings: U-87 MG, dose microM 0.1-5, time 48.0 hrs
Homo sapiens = species: Homo sapiens; experiment: Inhibition of human recombinant Erk at 100 nM measured in presence of [33P]-ATP by radiometric analysis relative to control
U-251 = experiment: Cytotoxicity against human U251 cells assessed as reduction in cell viability incubated for 48 hrs by MTT assay; settings: U-251, 48 h
Focal adhesion kinase 1 [3] = biological target: T1, Focal adhesion kinase 1; settings: U-87 MG, dose microM 0.1-5, time 48.0 hrs; remark: listed apart in the source
Focal adhesion kinase 1 [4] = biological target: T1, Focal adhesion kinase 1; settings: U-87 MG, dose microM 0.1-10, time 48.0 hrs
A 172 = experiment: Cytotoxicity against human A172 cells assessed as reduction in cell viability incubated for 48 hrs by MTT assay; settings: A 172, 48 h
[5] = biological target: Mast/stem cell growth factor receptor Kit (Homo sapiens) (UniProt P10721); experiment: Inhibition of human recombinant c-kit at 100 nM in presence of [gamma33P]ATP by radiometric assay relative to control
Chain of Mast/stem cell growth factor receptor Kit (Homo sapiens) (P10721 whole entry): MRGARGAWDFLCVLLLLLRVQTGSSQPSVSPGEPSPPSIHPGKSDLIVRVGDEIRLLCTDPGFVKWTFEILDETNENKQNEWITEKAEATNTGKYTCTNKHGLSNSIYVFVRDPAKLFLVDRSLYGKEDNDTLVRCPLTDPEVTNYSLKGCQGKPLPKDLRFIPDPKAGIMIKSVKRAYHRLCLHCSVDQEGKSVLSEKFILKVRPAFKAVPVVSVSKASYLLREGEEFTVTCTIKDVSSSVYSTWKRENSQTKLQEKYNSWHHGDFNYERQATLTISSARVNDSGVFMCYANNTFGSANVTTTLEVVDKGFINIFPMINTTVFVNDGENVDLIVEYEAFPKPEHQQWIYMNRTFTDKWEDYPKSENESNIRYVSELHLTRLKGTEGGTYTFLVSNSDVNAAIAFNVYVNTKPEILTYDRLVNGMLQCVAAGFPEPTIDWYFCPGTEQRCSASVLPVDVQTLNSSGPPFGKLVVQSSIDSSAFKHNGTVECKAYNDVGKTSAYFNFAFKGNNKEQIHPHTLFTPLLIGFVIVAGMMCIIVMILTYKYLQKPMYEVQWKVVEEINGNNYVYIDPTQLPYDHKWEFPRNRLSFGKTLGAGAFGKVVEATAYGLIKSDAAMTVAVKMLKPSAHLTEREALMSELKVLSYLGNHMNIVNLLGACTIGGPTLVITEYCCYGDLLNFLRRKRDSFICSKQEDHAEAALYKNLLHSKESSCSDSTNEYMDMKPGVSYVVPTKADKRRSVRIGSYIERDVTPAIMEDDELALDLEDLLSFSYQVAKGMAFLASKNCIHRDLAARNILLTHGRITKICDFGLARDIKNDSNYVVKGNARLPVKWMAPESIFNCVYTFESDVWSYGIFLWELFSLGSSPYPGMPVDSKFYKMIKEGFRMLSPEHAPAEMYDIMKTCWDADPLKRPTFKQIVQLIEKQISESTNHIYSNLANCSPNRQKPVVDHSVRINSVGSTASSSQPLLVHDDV

[6] = biological target: Insulin receptor (Homo sapiens) (UniProt P06213); experiment: Inhibition of human recombinant IR at 100 nM by [gamma-33ATP] radiometric analysis relative to control
Chain of Insulin receptor (Homo sapiens) (P06213 28-758 limits assumed): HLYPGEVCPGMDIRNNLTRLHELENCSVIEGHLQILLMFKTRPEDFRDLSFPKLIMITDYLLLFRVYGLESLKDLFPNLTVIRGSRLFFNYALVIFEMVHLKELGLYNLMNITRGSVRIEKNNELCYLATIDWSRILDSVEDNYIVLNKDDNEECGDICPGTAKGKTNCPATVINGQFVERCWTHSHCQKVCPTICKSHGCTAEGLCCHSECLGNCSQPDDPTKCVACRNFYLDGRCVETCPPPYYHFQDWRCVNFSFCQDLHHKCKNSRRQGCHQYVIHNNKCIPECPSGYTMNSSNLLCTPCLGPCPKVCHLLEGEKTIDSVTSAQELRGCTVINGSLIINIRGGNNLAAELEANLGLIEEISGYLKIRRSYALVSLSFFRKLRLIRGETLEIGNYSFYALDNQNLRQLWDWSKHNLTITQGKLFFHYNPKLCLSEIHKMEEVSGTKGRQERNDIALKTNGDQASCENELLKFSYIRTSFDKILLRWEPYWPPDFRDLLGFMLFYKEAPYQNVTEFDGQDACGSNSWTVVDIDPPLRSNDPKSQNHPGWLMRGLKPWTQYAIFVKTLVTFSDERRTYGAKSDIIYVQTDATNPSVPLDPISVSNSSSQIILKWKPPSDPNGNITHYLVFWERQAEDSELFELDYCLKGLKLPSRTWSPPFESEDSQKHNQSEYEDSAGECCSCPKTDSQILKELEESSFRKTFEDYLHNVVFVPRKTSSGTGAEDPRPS
Chain of Insulin receptor (Homo sapiens) (P06213 763-1382 limits assumed): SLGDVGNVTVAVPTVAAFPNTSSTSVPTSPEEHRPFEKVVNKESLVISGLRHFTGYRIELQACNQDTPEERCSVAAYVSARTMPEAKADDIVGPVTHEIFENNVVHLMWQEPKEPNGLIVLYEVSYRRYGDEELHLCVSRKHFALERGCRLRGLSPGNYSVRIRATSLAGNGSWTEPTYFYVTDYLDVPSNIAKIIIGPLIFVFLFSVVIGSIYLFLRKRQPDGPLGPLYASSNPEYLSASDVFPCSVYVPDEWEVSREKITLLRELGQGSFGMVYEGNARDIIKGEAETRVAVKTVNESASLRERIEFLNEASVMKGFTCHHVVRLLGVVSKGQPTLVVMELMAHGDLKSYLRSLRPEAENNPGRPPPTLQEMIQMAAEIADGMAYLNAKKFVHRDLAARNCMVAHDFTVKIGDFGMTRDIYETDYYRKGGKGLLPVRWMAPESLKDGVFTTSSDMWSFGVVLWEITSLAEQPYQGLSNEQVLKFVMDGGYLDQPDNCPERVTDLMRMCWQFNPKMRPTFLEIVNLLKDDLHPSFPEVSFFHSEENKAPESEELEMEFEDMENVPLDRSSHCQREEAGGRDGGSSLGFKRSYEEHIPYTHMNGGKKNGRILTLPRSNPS

U-87 MG [7] = experiment: Induction of cell cycle arrest in human U87MG cells assessed as accumulation in G2/M phase at 1 uM incubated for 48 hrs by propidium iodide staining based flow cytometry analysis (reference value: 28.9 +/- 2.1 %); assay type: functional, U-87MG ATCC; settings: dose microM 1-10
[8] = biological target: Insulin-like growth factor 1 receptor (Homo sapiens) (UniProt P08069); experiment: Inhibition of human recombinant IGF1R at 100 nM by [gamma-33ATP] radiometric assay relative to control
U-87 MG [9] = experiment: Cytotoxicity against human U-87 MG cells assessed as reduction in cell viability incubated for 48 hrs by MTT assay
[10] = biological target: Fibroblast growth factor receptor 1 (Homo sapiens) (UniProt P11362); experiment: Inhibition of human recombinant FGFR1 (456 to 765 residues) at 100 nM in presence of [gamma33P]ATP by radiometric assay relative to control
Focal adhesion kinase 1 [11] = biological target: T1, Focal adhesion kinase 1; experiment: Inhibition of recombinant human N-terminal His-tagged FAK (393 to 698 residues) expressed in baculovirus infected Sf9 insect cells using Poly (4:1 Glu, Tyr) as substrate measured after 1 hr by ADP-glo luminescence assay
Focal adhesion kinase 1 [12] = biological target: T1, Focal adhesion kinase 1; settings: U-87 MG, dose microM 0.6-3, time 48.0 hrs
U-87 MG [13] = experiment: Induction of apoptosis in human U87MG cells assessed as late apoptotic cells at 10 uM incubated for 48 hrs by Annexin-V/propidium iodide staining based flow cytometric method (reference value: […]); assay type: functional, U-87MG ATCC
Focal adhesion kinase 1 [14] = biological target: T1, Focal adhesion kinase 1; experiment: Covalent inhibition of recombinant human N-terminal His-tagged FAK (393 to 698 residues) expressed in baculovirus infected Sf9 insect cells using Poly (4:1 Glu, Tyr) as substrate preincubated for 2 to 60 mins followed by substrate addition and measured after 1 hr by ADP-glo luminescence assay
U-87 MG [15] = experiment: Inhibition of cell adhesion in human U87MG cells assessed as increase in appearance of stress fiber at 1 uM incubated for 48 hrs by FITC-conjugated phalloidin and TO-PRO3 staining based microscopic analysis; assay type: functional; settings: U-87MG ATCC
Focal adhesion kinase 1 [16] = biological target: T1, Focal adhesion kinase 1; settings: U-87 MG, dose microM 0.1-10, time 48.0 hrs; remark: listed apart in the source
Focal adhesion kinase 1 [17] = biological target: T1, Focal adhesion kinase 1; settings: U-87 MG, dose microM 0.1-10, time 48.0 hrs; remark: listed apart in the source
[18] = biological target: Proto-oncogene tyrosine-protein kinase Src (Homo sapiens) (UniProt P12931); experiment: Inhibition of human recombinant Src at 100 nM in presence of [gamma33P]ATP by radiometric assay relative to control
[19] = biological target: T2, Serine/threonine-protein kinase AKT (Homo sapiens) (UniProt P31751+Q9Y243+P31749); experiment: Activation of AKT in human U87MG cells at 0.1 to 10 uM incubated for 48 hrs by Western blot analysis; assay type: cell-based; settings: U-87 MG, dose microM 0.1-10, time 48.0 hrs
T2 sequence (P31749 whole entry, looked up): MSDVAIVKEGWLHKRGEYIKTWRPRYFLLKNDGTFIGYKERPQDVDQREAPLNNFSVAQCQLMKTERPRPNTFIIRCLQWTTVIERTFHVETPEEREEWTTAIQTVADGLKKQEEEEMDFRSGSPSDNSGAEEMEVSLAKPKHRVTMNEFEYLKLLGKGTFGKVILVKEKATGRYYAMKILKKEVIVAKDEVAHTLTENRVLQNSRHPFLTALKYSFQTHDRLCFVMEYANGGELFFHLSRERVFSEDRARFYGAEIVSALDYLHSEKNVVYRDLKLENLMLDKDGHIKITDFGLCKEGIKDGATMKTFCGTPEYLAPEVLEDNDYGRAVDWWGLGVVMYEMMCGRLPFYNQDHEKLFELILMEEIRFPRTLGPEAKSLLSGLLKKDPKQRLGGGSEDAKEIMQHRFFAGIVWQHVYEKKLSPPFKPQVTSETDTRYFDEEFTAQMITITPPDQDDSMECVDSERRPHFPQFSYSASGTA
T2 sequence (P31751 whole entry, looked up): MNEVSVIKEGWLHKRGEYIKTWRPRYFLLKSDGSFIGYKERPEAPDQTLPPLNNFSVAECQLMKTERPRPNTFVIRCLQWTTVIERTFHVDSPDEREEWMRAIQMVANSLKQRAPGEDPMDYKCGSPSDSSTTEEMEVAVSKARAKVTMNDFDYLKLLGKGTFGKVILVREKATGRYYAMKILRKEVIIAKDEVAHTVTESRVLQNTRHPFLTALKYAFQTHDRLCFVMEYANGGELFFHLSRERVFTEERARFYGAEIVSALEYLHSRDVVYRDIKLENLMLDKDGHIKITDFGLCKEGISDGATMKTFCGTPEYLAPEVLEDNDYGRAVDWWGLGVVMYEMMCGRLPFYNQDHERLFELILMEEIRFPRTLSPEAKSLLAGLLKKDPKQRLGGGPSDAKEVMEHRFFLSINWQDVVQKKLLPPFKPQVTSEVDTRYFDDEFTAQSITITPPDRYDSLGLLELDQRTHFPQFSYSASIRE
T2 sequence (Q9Y243 whole entry, looked up): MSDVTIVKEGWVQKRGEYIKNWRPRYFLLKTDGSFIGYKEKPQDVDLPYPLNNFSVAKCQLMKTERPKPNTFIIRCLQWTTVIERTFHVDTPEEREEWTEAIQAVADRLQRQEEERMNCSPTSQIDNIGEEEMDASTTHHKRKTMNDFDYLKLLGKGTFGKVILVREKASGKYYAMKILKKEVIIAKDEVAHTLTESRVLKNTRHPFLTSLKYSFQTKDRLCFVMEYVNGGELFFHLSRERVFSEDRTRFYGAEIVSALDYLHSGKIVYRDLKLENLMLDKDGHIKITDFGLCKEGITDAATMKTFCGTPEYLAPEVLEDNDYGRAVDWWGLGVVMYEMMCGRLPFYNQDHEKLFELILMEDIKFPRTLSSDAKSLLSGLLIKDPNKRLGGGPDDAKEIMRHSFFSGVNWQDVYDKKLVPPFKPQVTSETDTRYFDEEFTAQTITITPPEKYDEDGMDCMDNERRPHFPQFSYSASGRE

[20] = biological target: Epidermal growth factor receptor (Homo sapiens) (UniProt P00533); experiment: Inhibition of human recombinant EGFR at 100 nM in presence of [gamma33P]ATP by radiometric assay relative to control
U-87 MG [21] = experiment: Induction of apoptosis in human U87MG cells assessed as early apoptotic cells at 10 uM incubated for 48 hrs by Annexin-V/propidium iodide staining based flow cytometric method (reference value: 4.55 %); assay type: functional, U-87MG ATCC
U-87 MG [22] = experiment: Induction of cell cycle arrest in human U87MG cells assessed as multi-nucleated giant cells at 1 uM incubated for 48 hrs by TO-PRO-3 dye based immunocytochemistry analysis; assay type: functional; settings: U-87MG ATCC
U-87 MG [23] = experiment: Induction of cell cycle arrest in human U87MG cells assessed as increase in accumulation at G2 phase at 1 uM incubated for 48 hrs by propidium iodide staining based flow cytometry analysis; assay type: functional; settings: U-87MG ATCC
[24] = biological target: T2, Serine/threonine-protein kinase AKT (Homo sapiens); experiment: Inhibition of human Akt at 100 nM in presence of [33P]-ATP by radiometric analysis relative to control; assay type: protein assay
U-87 MG [25] = experiment: Induction of cell cycle arrest in human U87MG cells assessed as accumulation at S phase at 1 uM incubated for 48 hrs by propidium iodide staining based flow cytometry analysis (reference value: 19.5 %); assay type: functional, U-87MG ATCC
[26] = biological target: Platelet-derived growth factor receptor alpha (Homo sapiens) (UniProt P16234); experiment: Inhibition of human recombinant PDGFRA at 100 nM by [gamma-33ATP] radiometric assay relative to control
[27] = biological target: Protein-tyrosine kinase 2-beta (Homo sapiens) (UniProt Q14289); experiment: Inhibition of recombinant human full length PYK2 at 100 nM in presence of [gamma32P]-ATP by radiometric analysis relative to control
Chain of Protein-tyrosine kinase 2-beta (Homo sapiens) (Q14289 whole entry, looked up): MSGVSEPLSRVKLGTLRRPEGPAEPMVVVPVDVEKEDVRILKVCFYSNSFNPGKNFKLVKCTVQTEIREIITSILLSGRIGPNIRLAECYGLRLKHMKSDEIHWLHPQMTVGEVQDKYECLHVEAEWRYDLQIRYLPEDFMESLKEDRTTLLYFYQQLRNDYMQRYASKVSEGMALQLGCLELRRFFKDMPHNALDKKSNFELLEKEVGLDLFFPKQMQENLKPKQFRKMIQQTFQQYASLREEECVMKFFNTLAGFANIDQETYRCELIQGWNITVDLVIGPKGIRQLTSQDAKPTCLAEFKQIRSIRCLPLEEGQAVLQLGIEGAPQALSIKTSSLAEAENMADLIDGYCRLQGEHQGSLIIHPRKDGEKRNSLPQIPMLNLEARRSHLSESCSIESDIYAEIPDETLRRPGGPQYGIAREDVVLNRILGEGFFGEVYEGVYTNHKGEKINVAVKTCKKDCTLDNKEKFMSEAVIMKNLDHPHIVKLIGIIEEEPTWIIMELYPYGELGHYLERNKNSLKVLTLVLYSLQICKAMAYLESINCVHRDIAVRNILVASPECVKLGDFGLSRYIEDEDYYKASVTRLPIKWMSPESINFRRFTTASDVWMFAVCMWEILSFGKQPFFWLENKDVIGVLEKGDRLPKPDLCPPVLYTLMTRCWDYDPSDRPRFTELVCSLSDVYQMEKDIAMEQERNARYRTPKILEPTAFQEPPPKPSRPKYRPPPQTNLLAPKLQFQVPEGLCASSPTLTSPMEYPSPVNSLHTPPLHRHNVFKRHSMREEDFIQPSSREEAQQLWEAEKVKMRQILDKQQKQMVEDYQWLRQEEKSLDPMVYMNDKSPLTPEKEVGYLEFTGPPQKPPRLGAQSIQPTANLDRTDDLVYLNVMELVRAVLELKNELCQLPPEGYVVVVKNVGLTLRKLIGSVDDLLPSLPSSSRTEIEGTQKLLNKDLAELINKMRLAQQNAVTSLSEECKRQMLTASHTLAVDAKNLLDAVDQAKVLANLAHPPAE

U-87 MG [28] = experiment: Induction of cellular senescence in human U87MG cells assessed as flat and enlarged cells at 1 uM incubated for 48 hrs by TO-PRO-3 dye based immunocytochemistry analysis; assay type: functional, cell-based; settings: U-87MG ATCC
U-87 MG [29] = experiment: Activation of ERK in human U87MG cells at 0.1 to 10 uM incubated for 48 hrs by Western blot analysis; assay type: cell-based; settings: dose microM 0.1-10, time 48.0 hrs
U-87 MG [30] = experiment: Inhibition of cell migration in human U87MG cells assessed as reduction of cell mobility at 0.2 to 1 uM measured at 24 to 48 hrs by scratch wound assay; assay type: functional, cell-based; settings: U-87MG ATCC, dose microM 0.2-1, time hrs 24-48
U-87 MG [31] = experiment: Induction of apoptosis in human U87MG cells assessed as live cells at 10 uM incubated for 48 hrs by Annexin-V/propidium iodide staining based flow cytometric method (reference value: 94.2%); assay type: functional, U-87MG ATCC
U-87 MG [32] = experiment: Induction of cell cycle arrest in human U87MG cells assessed as accumulation at G0/G1 phase at 1 uM incubated for 48 hrs by propidium iodide staining based flow cytometry analysis (reference value: 51.6 +/- […]); assay type: functional, U-87MG ATCC
U-87 MG [33] = experiment: Induction of apoptosis in human U87MG cells assessed as necrotic cells at 10 uM incubated for 48 hrs by Annexin-V/propidium iodide staining based flow cytometric method (reference value: […]); assay type: functional, U-87MG ATCC

inhibition (Focal adhesion kinase 1 [1]) [%] | inhibition (Homo sapiens) [%] | inhibition [5] [%] | inhibition [6] [%] | inhibition [8] [%] | inhibition [10] [%] | Compound | pIC50 (U-251) | pIC50 (A 172) | Activity (U-87 MG [7]) [%] | pIC50 (U-87 MG [9]) | Activity (U-87 MG [13]) [%] | inhibition (U-87 MG [15]) | Activity (U-87 MG [21]) [%] | Activity (U-87 MG [22]) | Activity (U-87 MG [23]) | Activity (U-87 MG [25]) [%] | Activity (U-87 MG [28]) | inhibition (U-87 MG [30]) | Activity (U-87 MG [32]) [%] | Activity (U-87 MG [33]) [%] | other results
94.1 | 4.3 | 0 | 32.4 | 71.9 | 83.5 | CNC(=O)c1ccccc1Nc1nc(Nc2ccc(CNc3c(NCCNC(=O)/C(C#N)=C/C(C)C)c(=O)c3=O)cc2)ncc1Cl | 5.01 | 5.89 | 79.1 | 5.15 | 0.21 | Active | 0 | Active | Active | 8.2 | Active | Active | 12.7 | 3.37 | inhibition (Focal adhesion kinase 1 [2]): inactive; inhibition (Focal adhesion kinase 1 [3]): Dose-dependent effect; inhibition (Focal adhesion kinase 1 [4]): Dose-dependent effect; pIC50 (Focal adhesion kinase 1 [11]): 8.92; inhibition (Focal adhesion kinase 1 [12]): Dose-dependent effect; pKi (Focal adhesion kinase 1 [14]): 9.33; inhibition (Focal adhesion kinase 1 [16]): Dose-dependent effect; inhibition (Focal adhesion kinase 1 [17]): Dose-dependent effect; inhibition [18]: 31.1%; Activity [19]: inactive; inhibition [20]: 25.1%; inhibition [24]: 19.9%; inhibition [26]: 67.5%; inhibition [27]: 97.5%; Activity (U-87 MG [29]): inactive; Activity (U-87 MG [31]): 96.4%
98.1 | 14.2 | 0.2 | 57.6 | 91.5 | 87.1 | C=CC(=O)NCCNc1c(NCc2ccc(Nc3ncc(Cl)c(Nc4ccccc4C(=O)NC)n3)cc2)c(=O)c1=O | 6.66 | 6.19 | 80.8 | 5.66 | 2.45 | Active | 6.05 | Active | Active | 10 | Active | Active | 9.2 | 0.67 | inhibition (Focal adhesion kinase 1 [2]): inactive; inhibition (Focal adhesion kinase 1 [3]): Dose-dependent effect; inhibition (Focal adhesion kinase 1 [4]): Dose-dependent effect; pIC50 (Focal adhesion kinase 1 [11]): 9.22; inhibition (Focal adhesion kinase 1 [12]): Dose-dependent effect; pKi (Focal adhesion kinase 1 [14]): 9.64; inhibition (Focal adhesion kinase 1 [16]): Dose-dependent effect; inhibition (Focal adhesion kinase 1 [17]): Dose-dependent effect; inhibition [18]: 52.1%; Activity [19]: inactive; inhibition [20]: 47.2%; inhibition [24]: 3.7%; inhibition [26]: 91%; inhibition [27]: 97.6%; Activity (U-87 MG [29]): inactive; Activity (U-87 MG [31]): 90.8%
92.2 | 4.1 | 0 | 15.1 | 28.1 | 32.5 | C=CC(=O)NCCNc1c(NCc2ccc(Nc3ncc(Cl)c(NCc4cccnc4N(C)S(C)(=O)=O)n3)cc2)c(=O)c1=O | – | – | – | – | – | – | – | – | – | – | – | – | – | – | pIC50 (Focal adhesion kinase 1 [11]): 8.26; inhibition [18]: 17.9%; inhibition [20]: 1.2%; inhibition [24]: 2.5%; inhibition [26]: 12.5%; inhibition [27]: 68.3%
– | – | – | – | – | – | CNC(=O)c1ccccc1Nc1nc(Nc2ccc(N3CCOCC3)cc2OC)ncc1Cl | 5.20 | 5.08 | 66.1 | 5.54 | 2.45 | Active | 7.24 | Active | Active | 19.5 | Active | Active | 16.2 | 2.2 | inhibition (Focal adhesion kinase 1 [2]): Active; inhibition (Focal adhesion kinase 1 [4]): Dose-dependent effect; inhibition (Focal adhesion kinase 1 [12]): Dose-dependent effect; inhibition (Focal adhesion kinase 1 [16]): Dose-dependent effect; inhibition (Focal adhesion kinase 1 [17]): Dose-dependent effect; Activity (U-87 MG [31]): 88.1%
– | – | – | – | – | – | CNC(=O)c1ccccc1Nc1nc(Nc2ccc(CNc3c(NCCNC(=O)/C(C#N)=C/C4CC4)c(=O)c3=O)cc2)ncc1Cl | 5.92 | 6.05 | 83.1 | 5.14 | 4.06 | Active | 7.3 | Active | Active | 8.8 | Active | Active | 8.1 | 1.39 | Activity (U-87 MG [31]): 87.3%
98.6 | 21.8 | 0.1 | 82.5 | 94.4 | 88.3 | C=CC(=O)NCCNc1c(NCc2ccc(Nc3ncc(C(F)(F)F)c(Nc4ccccc4C(=O)NC)n3)cc2)c(=O)c1=O | 6.82 | 6.89 | 75.1 | 5.48 | 3.85 | Active | 5.6 | Active | Active | 11.2 | Active | Active | 13.7 | 1.1 | pIC50 (Focal adhesion kinase 1 [11]): 8.17; inhibition (Focal adhesion kinase 1 [12]): Dose-dependent effect; pKi (Focal adhesion kinase 1 [14]): 8.58; inhibition [18]: 55.6%; inhibition [20]: 29%; inhibition [24]: 25.1%; inhibition [26]: 78.4%; inhibition [27]: 99.8%
